Source: patent US10035790B2, “RORγ modulators” (BRISTOL-MYERS SQUIBB COMPANY, priority 2012, dated 2018)

Target: T1, ligand binding domain of human RORγ (A262-S507) (Homo sapiens, UniProt P51449)
T1 construct: made in house; host or cells: E. coli
T1 sequence (P51449 262-507): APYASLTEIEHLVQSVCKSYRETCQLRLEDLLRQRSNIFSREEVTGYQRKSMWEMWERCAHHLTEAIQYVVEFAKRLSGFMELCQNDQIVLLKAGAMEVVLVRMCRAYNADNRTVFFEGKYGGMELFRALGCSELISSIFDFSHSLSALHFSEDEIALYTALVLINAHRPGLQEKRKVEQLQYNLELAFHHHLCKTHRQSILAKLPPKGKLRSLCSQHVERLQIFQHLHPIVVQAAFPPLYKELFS
Assay: General RORγ SPA binding assay (competition with [3H]25-hydroxycholesterol)
Conditions: RORγ SPA binding assay, inhibition of [3H]25-hydroxycholesterol binding; read-out: IC50
Experimental: Example 2 General RORγ SPA Binding Assay
The binding of potential ligands to RORγ is measured by competition with [^3H]25-hydroxycholesterol using a scintillation proximity assay (SPA) binding assay. The ligand binding domain of human RORγ (A262-S507) with an N-terminal His tag is expressed in E. coli and purified using nickel affinity chromotography. 50 nM RORγ (A262-S507) is incubated with test compound at varying concentrations for 15 min at room temperature in PBS buffer containing 0.5% fatty acid free BSA. […] of [^3H]25-hydroxycholesterol is then added, and the reaction is incubated for 15 min. 4 mg/mL of Ysi Copper HIS-TAG SPA Beads (Perkin Elmer) are added, and the mixture is incubated for 30 min. The reaction is read on a MicroBeta Trilux scintillation plate reader (Perkin Elmer). IC50 values are determined from the percentage inhibition of [^3H]25-hydroxycholesterol binding.

Row | IC50 [nM] | SMILES
1 | 9.6 | Cc1ncc(C(=O)NNc2cccc(Cl)c2)c(C2CCN(C(=O)Cc3c(F)cccc3F)CC2)n1 [Compound G1, N-(3-Chlorophenyl)-4-(1-(2-(2,6-difluorophenyl)acetyl)piperidin-4-yl)-2-methylpyrimidine-5-carbohydrazide]
2 | 196 | Cc1ncc(C(C)(O)CN(C)c2ccnc(C(F)(F)F)n2)c(C2CCN(C(=O)Nc3c(F)cccc3F)CC2)n1 (centres unmarked) [Compound D19, N-(2,6-Difluorophenyl)-4-[5-(1-hydroxy-1-methyl-2-{methyl[2-(trifluoromethyl)pyrimidin-4-yl]amino}ethyl)-2-methylpyrimidin-4-yl]piperidine-1-carboxamide]
3 | 45.7 | Cc1ncc(C(C)(C)OCc2cccc(Cl)c2)c(C2CCN(C(=O)Cc3c(F)cccc3F)CC2)n1 [Compound E6, 1-(4-(5-(2-((3-chlorobenzyl)oxy)propan-2-yl)-2-methylpyrimidin-4-yl)piperidin-1-yl)-2-(2,6-difluorophenyl)ethanone]
4 | 213 | Cc1cc(CNC(=O)c2cnc(C)nc2C2CCN(C(=O)Cc3c(F)cccc3F)CC2)ccn1 [Compound A70, 4-(1-(2-(2,6-difluorophenyl)acetyl)piperidin-4-yl)-2-methyl-N-((2-methylpyridin-4-yl)methyl)pyrimidine-5-carboxamide]
5 | 240 | Cc1nc(C)c(-c2nnc(-c3ccnc(C(F)(F)F)n3)o2)c(C2CCN(C(=O)Cc3ncccc3Cl)CC2)n1 [Compound C42, 4-{1-[(3-Chloropyridin-2-yl)acetyl]piperidin-4-yl}-2,6-dimethyl-5-{5-[2-(trifluoromethyl)pyrimidin-4-yl]-1,3,4-oxadiazol-2-yl}pyrimidine]
6 | 619 | Cc1ncc(C(=O)NCc2ccc(C(F)(F)F)nc2)c(C2CCN(C(=O)Cc3c(F)cccc3F)CC2)n1 [Compound A74, 4-(1-(2-(2,6-difluorophenyl)acetyl)piperidin-4-yl)-2-methyl-N-((6-(trifluoromethyl)pyridin-3-yl)methyl)pyrimidine-5-carboxamide]
7 | 87.1 | Cc1nc(C)c(-c2nnc(-c3ccnc(C(F)(F)F)n3)o2)c(C2CCN(S(=O)(=O)Cc3ccccc3F)CC2)n1 [Compound C34, 4-(1-{[(2-Fluorophenyl)methyl]sulfonyl}piperidin-4-yl)-2,6-dimethyl-5-{5-[2-(trifluoromethyl)pyrimidin-4-yl]-1,3,4-oxadiazol-2-yl}pyrimidine]
8 | 40.3 | Cc1nc(C2CCN(C(=O)Cc3c(F)cccc3F)CC2)c(C(=O)NCc2cccc(C(F)(F)F)n2)c(=O)[nH]1 [Compound I1, 4-{1-[(2,6-Difluorophenyl)acetyl]piperidin-4-yl}-2-methyl-6-oxo-N-{[6-(trifluoromethyl)pyridin-2-yl]methyl}-1,6-dihydropyrimidine-5-carboxamide]
9 | 270 | Cc1cc(C)cc(CNC(=O)c2cnc(C)nc2C2CCN(C(=O)Nc3ccccc3F)CC2)c1 [Compound A106, N-(3,5-Dimethylbenzyl)-4-(1-((2-fluorophenyl)carbamoyl)piperidin-4-yl)-2-methylpyrimidine-5-carboxamide]
10 | 168 | C/C(=N\Oc1ccnc(C(F)(F)F)n1)c1cnc(N)nc1C1CCN(C(=O)Nc2c(F)cccc2F)CC1 [Compound B54, 4-{2-Amino-5-[(1E)-N-{[2-(trifluoromethyl)pyrimidin-4-yl]oxy}ethanimidoyl]pyrimidin-4-yl}-N-(2,6-difluorophenyl)piperidine-1-carboxamide]
11 | 72.8 | Cc1ncc(C(C)(O)CN(C)c2ccnc(C(F)(F)F)n2)c(C2CCN(C(=O)Cc3c(F)cccc3F)CC2)n1 (centres unmarked) [Compound D20, 2-(4-{1-[(2,6-Difluorophenyl)acetyl]piperidin-4-yl}-2-methylpyrimidin-5-yl)-1-{methyl[2-(trifluoromethyl)pyrimidin-4-yl]amino}propan-2-ol]
12 | 7.5 | COc1cc(CNC(=O)c2cnc(C)nc2C2CCN(C(=O)Cc3c(F)cccc3F)CC2)cc(Cl)n1 [Compound A52, N-((2-chloro-6-methoxypyridin-4-yl)methyl)-4-(1-(2-(2,6-difluorophenyl)acetyl)piperidin-4-yl)-2-methylpyrimidine-5-carboxamide]
13 | 65.2 | Cc1nc(C)c(-c2nnc(-c3ccnc(C(F)(F)F)n3)o2)c(C2CCN(C(=O)Nc3c(F)cccc3F)CC2)n1 [Compound C28, N-(2,6-Difluorophenyl)-4-(2,6-dimethyl-5-{5-[2-(trifluoromethyl)pyrimidin-4-yl]-1,3,4-oxadiazol-2-yl}pyrimidin-4-yl)piperidine-1-carboxamide]
14 | 277 | Cc1nc(C)c(-c2nnc(-c3ccnc(C(F)(F)F)n3)o2)c(C2CCN(C(=O)c3c(F)cccc3F)CC2)n1 [Compound C24, 4-{1-[(2,6-Difluorophenyl)carbonyl]piperidin-4-yl}-2,6-dimethyl-5-{5-[2-(trifluoromethyl)pyrimidin-4-yl]-1,3,4-oxadiazol-2-yl}pyrimidine]
15 | 70 | Cc1cc(C)cc(CNC(=O)c2cnc(C)nc2C2CCN(C(=O)Cc3ccccc3[N+](=O)[O-])CC2)c1 [Compound A15, N-(3,5-dimethylbenzyl)-2-methyl-4-(1-(2-(2-nitrophenyl)acetyl)piperidin-4-yl)pyrimidine-5-carboxamide]
16 | 183 | Cc1nc(C)c(-c2nc(-c3cccc(C(F)(F)F)c3)no2)c(C2CCN(C(=O)Nc3c(F)cccc3C(F)(F)F)CC2)n1 [Compound C64, 4-(2,6-Dimethyl-5-{3-[3-(trifluoromethyl)phenyl]-1,2,4-oxadiazol-5-yl}pyrimidin-4-yl)-N-[2-fluoro-6-(trifluoromethyl)phenyl]piperidine-1-carboxamide]
17 | 35.1 | C/C(=N\Oc1ccnc(C(F)(F)F)c1)c1cnc(N)nc1C1CCN(C(=O)Nc2c(F)cccc2F)CC1 [Compound B53, 4-{2-amino-5-[(1E)-N-{[2-(trifluoromethyl)pyridin-4-yl]oxy}ethanimidoyl]pyrimidin-4-yl}-N-(2,6-difluorophenyl)piperidine-1-carboxamide]
18 | 461 | Cc1nc(C)c(-c2nnc(-c3ccnc(C(F)(F)F)n3)o2)c(C2CCN(C(=O)c3c(F)cccc3Cl)CC2)n1 [Compound C27, (2-chloro-6-fluorophenyl)(4-(2,6-dimethyl-5-(5-(2-(trifluoromethyl)pyrimidin-4-yl)-1,3,4-oxadiazol-2-yl)pyrimidin-4-yl)piperidin-1-yl)methanone]
19 | 5.8 | C/C(=N\Oc1cc(Cl)nc(C(F)(F)F)c1)c1cnc(N)nc1C1CCN(C(=O)Nc2c(F)cccc2F)CC1 [Compound B55, 4-{2-Amino-5-[(1E)-N-{[2-chloro-6-(trifluoromethyl)pyridin-4-yl]oxy}ethanimidoyl]pyrimidin-4-yl}-N-(2,6-difluorophenyl)piperidine-1-carboxamide]
20 | 844 | Cc1nc(C)c(-c2nnc(-c3ccnc(C(F)(F)F)n3)o2)c(C2CCN(S(=O)(=O)c3c(F)cccc3F)CC2)n1 [Compound C33, 4-{1-[(2,6-Difluorophenyl)sulfonyl]piperidin-4-yl}-2,6-dimethyl-5-{5-[2-(trifluoromethyl)pyrimidin-4-yl]-1,3,4-oxadiazol-2-yl}pyrimidine]
21 | 26 | Cc1ncc(C(C)(C)CNc2nccc(C(F)(F)F)n2)c(C2CCN(C(=O)Cc3c(F)cccc3F)CC2)n1 [Compound F2, 2-(2,6-difluorophenyl)-1-(4-(2-methyl-5-(2-methyl-1-((4-(trifluoromethyl)pyrimidin-2-yl)amino)propan-2-yl)pyrimidin-4-yl)piperidin-1-yl)ethanone]
22 | 6.2 | Cc1cc(C)cc(COC(C)(COCC(O)CO)c2cnc(C)nc2C2CCN(C(=O)Cc3c(F)cccc3F)CC2)c1 (centres unmarked) [Compound E3, 2-(2,6-difluorophenyl)-1-(4-(5-(1-(2,3-dihydroxypropoxy)-2-((3,5-dimethylbenzyl)oxy)propan-2-yl)-2-methylpyrimidin-4-yl)piperidin-1-yl)ethanone]
23 | 209 | O=C(NCc1ccc(Cl)c(Cl)c1)c1cnc(C(F)(F)F)nc1C1CCN(C(=O)Cc2c(F)cccc2F)CC1 [Compound A21, N-(3,4-dichlorobenzyl)-4-(1-(2-(2,6-difluorophenyl)acetyl)piperidin-4-yl)-2-(trifluoromethyl)pyrimidine-5-carboxamide]
24 | 6.1 | Cc1ncc(C(=O)NCc2cccc(C(F)(F)F)c2)c(C2CCN(C(=O)Cc3c(F)cccc3F)CC2)n1 [Compound A46, 4-(1-(2-(2,6-difluorophenyl)acetyl)piperidin-4-yl)-2-methyl-N-(3-(trifluoromethyl)benzyl)pyrimidine-5-carboxamide]
25 | 9.8 | COc1nc(C)nc(C2CCN(C(=O)Cc3c(F)cccc3F)CC2)c1C(=O)NCc1cccc(Cl)c1 [Compound A111, N-(3-Chlorobenzyl)-4-(1-(2-(2,6-difluorophenyl)acetyl)piperidin-4-yl)-6-methoxy-2-methylpyrimidine-5-carboxamide]
26 | 88.8 | Cc1ncc(C(C)(O)CNc2ccnc(C(F)(F)F)n2)c(C2CCN(C(=O)Nc3c(F)cccc3F)CC2)n1 (centres unmarked) [Compound D17, N-(2,6-Difluorophenyl)-4-[5-(1-hydroxy-1-methyl-2-{[2-(trifluoromethyl)pyrimidin-4-yl]amino}ethyl)-2-methylpyrimidin-4-yl]piperidine-1-carboxamide]
